Laboratory results published in patent US20230339983A1, “FLUORESCENT COMPOUNDS SPECIFIC FOR PLURIPOTENT STEM CELLS AND REPROGRAMMING-READY CELLS AND METHODS OF USING THE SAME” (Agency for Science, Technology and Research, priority 2018, published 2023).

Experiments:
[1] = test system: reprogrammed ASCs and DPSCs on microcarriers; assay: Fluorescent probe staining on Cytodex 3 microcarriers (3D culture); type: cell-based, human; conditions: 14 and 21 dpn
Procedure: Reprogrammed monolayer ASCs and DPSCs were dissociated into single cell suspension using Dispase. Single cell suspension was transferred into a 6-well Suspension Culture Plate (Greiner bio-one) with Matrigel (Geltrex™, ThermoFisher)-coated Cytodex 3 microcarrier in 4 ml of mTeSR1 supplemented with 10 μM of Rock Inhibitor Y27632 (Calbiochem). The plate was placed on an orbital shaker (110 rpm) for at least 2 hours for cell attachment. Afterward, the plate was transferred to static condition and incubated at 37° C./5% CO2. Media change was carried out with mTeSR1 daily thereafter by aspirating […] of spent medium from the well and adding 4 ml of fresh media (80% medium exchange). On Day 7, the cells on microcarriers were supplemented and maintained with 4 ml of mTeSR1+SMC4 media. 80% medium change was carried out every day.
BDL-E5 probe staining of reprogrammed ASCs and DPSCs on microcarriers was carried out on Day 14 and 21 dpn. The microcarrier culture was washed twice with sterile D-PBS. Prior to staining, media was changed to mTeSR1 with 500 nM BDL-E5 probe and Alexa Fluor® 488 Mouse anti-human TRA-1-60 (200× dilution) (BD Pharmingen™). Cultures were incubated for 1 hour. The cells were then washed twice with D-PBS and replaced with mTeSR1 prior to imaging. Images were taken using Axio Observer Fluorescent Microscope (Carl Zeiss). […]

reprogramming DPSCs = assay: Staining of DPSCs reprogrammed with retroviral Yamanaka factors on MEF; type: cell-based, human; conditions: retroviral OCT4, SOX2, KLF4, C-MYC
Text: iPS cells were also generated from DPSCs with the traditional protocol involving retroviral vectors expressing OCT4, SOX2, KLF4, and C-MYC (Sugii, et al. (2011). Nature Protoc 6(3):346-358). BJ human neonatal fibroblasts were reprogrammed using lentiviral OCT4, SOX2, KLF4, and C-MYC as described previously (Toh, et al. (2016). Cell Rep 15(12):2597-2607).
We also tested whether BDL-E5 worked for commonly used reprogramming methods and cell type. DPSCs were infected with retroviral vectors expressing four Yamanaka factors, and plated onto MEF. […] In addition, BJ human fibroblasts were reprogrammed with lentiviral Yamanaka factors.

[2] = test system: human iPS cells (AiPS, DiPS colonies); assay: DOFLA screening (primary, secondary, tertiary) of fluorescent probes on iPS cells versus original somatic cells; type: cell-based
Procedure: (§1) The chemical properties of the BDL library are previously described (Jeong et al., 2015). BDL-E5 is based on 4,4-difluoro-4-bora-3a,4a-diaza-s-indacene (BODIPY), with calculated mass of 528.3 and absorption maximum/emission maximum of 578/599 nm. Primary, secondary and tertiary screening of fluorescent probes on AiPS, ASCs, DiPS and DPSCs were performed as described previously (Im, et al. (2010). Angew Chem Int Ed Engl 49, 7497-7500; Kang, et al. (2011). Nat Protoc 6, 1044-1052) and in the Results section. Unless described otherwise, BDL-E5 and CDy1 images were acquired by the Tetramethylrhodamine (TRITC) channel of ImageXpress Micro High-Content Imaging System, which had the Adaptive Background Correction function enabled.
A high-throughput system using in-house Diversity Orientated Fluorescence Library Approach (DOFLA) was employed to screen 46 fluorescent probes that the inventors predicted may specifically recognize pluripotent stem cells. To identify fluorescent probes that detected human pluripotent stem cells, ASCs, ASC-derived iPS (AiPS) cells, DPSCs, and DPSC-derived iPS (DiPS) cells were used. […] Cells were seeded onto 384-well plates (primary screen) or 96-well plates (secondary and tertiary screen) coated with mouse embryonic fibroblasts (MEF) or matrigel (MG) for DOFLA screening (FIG. 1A). After 48 h, cells were stained with library probes (500 nM) for 1 h. Fluorescence was imaged using the ImageXpress System under the following conditions: “No wash” (after 1 h probe incubation), “Wash 0 min” (after one wash with PBS), “Wash 60 min” (after wash and destain for 1 h) and “Wash 180 min” (after wash and destain for 3 h) (FIG. 1A).
Images were analyzed using the MetaXpress Image Acquisition and Analysis software. Following tertiary screening, two probes were shortlisted to develop further as pluripotent probes: BDL-E5 and CDy1. The chemical structure of BDL-E5 is depicted in FIG. 1B.
Secondary screening was performed to confirm that the probes selectively stained different iPS colonies. […] The BDL-E5^+ colonies were also positively stained for the pluripotency marker TRA-1-60.
Based on the primary and secondary screenings for live fluorescent probes that can specifically identify pluripotent cells, BDL-E5 and CDy1 were chosen as two probes to further analyze. Tertiary screening was performed using the two probes on AiPS colonies under the following probe staining conditions: No wash, Wash 0 min, Wash 60 min, and Wash 180 min.

[3] = Absorption and emission maxima of the probe; type: physicochemical
Procedure: as §1

reprogrammed DPSCs = assay: FACS of reprogrammed DPSCs stained with BDL-E5 at 7 dpn and iPS colony count; type: cell-based, human; conditions: DPSCs sorted at 7 dpn, seeded on MEF, two weeks
Procedure: Reprogrammed ASCs and DPSCs, AiPS and DiPS on D7 or D14 dpn were stained with BDL-E5 for 1 hour and then harvested using TrypLE and resuspended in 1×PBS. The cells were then subjected to FACS in the MoFlo XDP Cell Sorter (Beckman Coulter) under sterile conditions.
Different DPSC cell lines were reprogrammed using the feeder-free episomal method, incubated with BDL-E5, and subjected to fluorescence activated cell sorting (FACS) at 7 dpn. […] FIG. 10A (i) and (ii) represents the unstained DPSCs.
The cells were allowed to grow for the next two weeks until colonies appeared.

COc1cc(F)c(/C=C/c2cc(C)c3n2[B-](F)(F)[N+]2=C(CCC(=O)NCCN(C)C)C=CC2=C3)cc1OC [BDL-E5]
staining of reprogrammed cells on microcarriers ([1]; 500 nM, 1 h): clearly observed
background staining of Cytodex 3 microcarriers themselves [1]: no background BDL-E5 staining
earliest time of staining of reprogramming cells (reprogramming DPSCs): 7 dpi
intensity of fluorescence in human iPS cells compared with original somatic cells and MEFs ([2]; 500 nM probe, 1 h, after tertiary screening): significantly increased intensity of fluorescence
staining of AiPS colonies compared with original somatic cells (ASCs) ([2]; primary screening, MEF- or MG-coated plates, 500 nM, 1 h, BDL-E5 No wash): increased BDL-E5 staining
staining of DiPS colonies compared with original DPSCs ([2]; secondary screening, MEF- or MG-coated plates, 500 nM, 1 h, BDL-E5 No wash): significantly increased fluorescence intensity
wash condition under which staining (signal-to-background ratio) was greatest ([2]; tertiary screening, AiPS colonies on MEF-coated plates): No wash
wash condition under which staining was greatest ([2]; tertiary screening, AiPS colonies on MG-coated plates): No wash
absorption maximum [3]: 578 nm
emission maximum [3]: 599 nm
iPS colonies from BDL-E5+ (top 10%) versus BDL-E5- (bottom 10%) sorted cells (reprogrammed DPSCs): gave rise to an increased number of iPSCs
